Key:
[1] = tested on: Myzus persicae; assay: Insecticidal activity against Myzus persicae (green peach aphid) infested two-leaf stage of cabbage plants assessed as mortality at 250 ppm applied as spray after 4 days relative to untreated control; assay type: functional; settings: 96 h
[2] = Solubility of the compound in chloroform; assay type: physicochemical
[3] = Solubility of the compound in DMSO; assay type: physicochemical
[4] = Solubility of the compound in methanol; assay type: physicochemical
[5] = Solubility of the compound in ethyl acetate; assay type: physicochemical

In the case of `O=C1c2c([nH]c3ccccc3c2=O)-c2cccn21` [QUINOLACTACIDE], the mortality at 250 ppm [1] is reported as 88%, the solubility [2] is reported as “Insoluble” and the solubility [3] is reported as “soluble”. The solubility [4] was “Insoluble” and the solubility [5] was “Insoluble”.

From ChEMBL document CHEMBL3046738, “Quinolactacide, a new quinolone insecticide from Penicillium citrinum Thom F 1539” (Biosci Biotechnol Biochem, 2005)
